Calls of active or inactive are those of the source. The rule behind the calls is not given here.
Tests used:
[1] = Cytotoxicity against mouse RAW264.7 cells assessed as cell viability at 15 ug/ml after 24 hrs by alamarBlue assay relative to control; type: cell-based; conditions: read-out: Activity
RAW264.7 [2] = assay: Cytotoxicity against mouse RAW264.7 cells assessed as reduction in cell viability after 24 hrs by alamarBlue assay; type: cell-based; conditions: RAW264.7, 24 h
RAW264.7 [3] = assay: Antiinflammatory activity in mouse RAW264.7 cells assessed as inhibition of LPS-induced NO production incubated for 12 hrs by Griess reagent based assay; type: functional
MCF7 = assay: Antiproliferative activity against human MCF7 cells assessed as reduction in cell viability after 48 hrs by alamarBlue assay; type: functional, cell-based
HEp-2 = assay: Antiproliferative activity against human Hep2 cells assessed as reduction in cell viability after 48 hrs by alamarBlue assay; type: functional, cell-based
WiDr = assay: Antiproliferative activity against human WiDr cells assessed as reduction in cell viability after 48 hrs by alamarBlue assay; type: functional, cell-based
HepG2 = assay: Antiproliferative activity against human HepG2 cells assessed as reduction in cell viability after 48 hrs by alamarBlue assay; type: functional, cell-based
[4] = system: Human immunodeficiency virus 1; assay: Antiviral activity against HIV 1 NL4-3 infected in human MT4 cells assessed as reduction in viral replication and measured on day 3 post infection by Nano-glo luciferase reporter gene assay; type: functional, organism-based

## O=c1c(O)c(-c2ccc(O)c(O)c2)oc2cc(O)cc(O)c12 [QUERCETIN]
[1]
  viability at 24 h, 15 ug/ml: 142%
RAW264.7 [2]
  IC50: 4.2 µM
RAW264.7 [3]
  inhibition (INH): 88.9%

## CO[C@@H]1O[C@]23C=C[C@@H]4[C@@]1(CC[C@]1(C)[C@@H]([C@H](C)C/C=C/C(C)(C)O)CC[C@@]41C)[C@@H]2CC[C@H](OC(=O)CC(=O)O)C3(C)C
[1]
  viability at 24 h, 15 ug/ml: 113%
MCF7
  Activity: inactive
RAW264.7 [2]
  IC50: 29.1 µM
RAW264.7 [3]
  inhibition (INH): 42.6%
HEp-2
  Activity: inactive
WiDr
  Activity: inactive
HepG2
  Activity: inactive

## COC(C)(C)/C=C/C[C@@H](C)[C@H]1CC[C@@]2(C)[C@@H]3[C@@H](O)C=C4[C@@H](CC[C@H](OC(=O)CC(=O)O)C4(C)C)[C@]3(C=O)CC[C@]12C
[4]
  Activity: inactive

## C/C=C/C(=O)O[C@H]1CC[C@@H]2C(=C[C@H](O)[C@@H]3[C@@]2(C=O)CC[C@]2(C)[C@@H]([C@H](C)C/C=C/C(C)(C)O)CC[C@@]32C)C1(C)C
[1]
  viability at 24 h, 15 ug/ml: 94.7%
MCF7
  Activity: inactive
RAW264.7 [2]
  IC50: 19.1 µM
RAW264.7 [3]
  inhibition (INH): 73.3%
HEp-2
  Activity: inactive
WiDr
  Activity: inactive
HepG2
  Activity: inactive

## C[C@H](C/C=C/C(C)(C)O)[C@H]1CC[C@@]2(C)[C@@H]3[C@@H](O)C=C4[C@@H](CC[C@H](OC(=O)CC(=O)O)C4(C)C)[C@]3(C=O)CC[C@]12C
[1]
  viability at 24 h, 15 ug/ml: 53.8%
MCF7
  Activity: inactive
RAW264.7 [2]
  IC50: 16 µM
RAW264.7 [3]
  inhibition (INH): 77%
HEp-2
  Activity: inactive
WiDr
  Activity: inactive
HepG2
  Activity: inactive

## CO[C@H]1C=C2[C@@H](CC[C@H](OC(=O)CC(=O)O)C2(C)C)[C@]2(C=O)CC[C@]3(C)[C@@H]([C@H](C)C/C=C/C(C)(C)OC)CC[C@@]3(C)[C@H]12
[4]
  Activity: inactive
[1]
  viability at 24 h, 15 ug/ml: 72.4%
MCF7
  Activity: inactive
RAW264.7 [2]
  IC50: 22.1 µM
RAW264.7 [3]
  inhibition (INH): 56.5%
HEp-2
  Activity: inactive
WiDr
  Activity: inactive
HepG2
  Activity: inactive

## CO[C@H]1O[C@]23C=C[C@@H]4[C@@]1(CC[C@]1(C)[C@@H]([C@H](C)C/C=C/C(C)(C)O)CC[C@@]41C)[C@@H]2CC[C@H](OC(=O)CC(=O)O)C3(C)C
[1]
  viability at 24 h, 15 ug/ml: 59.6%
MCF7
  Activity: inactive
RAW264.7 [2]
  IC50: 11.3 µM
RAW264.7 [3]
  inhibition (INH): 66.1%
HEp-2
  Activity: inactive
WiDr
  Activity: inactive
HepG2
  Activity: inactive

## CO[C@@H](C=C(C)C)C[C@@H](C)[C@H]1CC[C@@]2(C)[C@@H]3[C@@H](O)C=C4[C@@H](CC[C@H](OC(=O)CC(=O)O)C4(C)C)[C@]3(C=O)CC[C@]12C
[4]
  Activity: inactive
[1]
  viability at 24 h, 15 ug/ml: 61.9%
MCF7
  Activity: inactive
RAW264.7 [2]
  IC50: 16.1 µM
RAW264.7 [3]
  inhibition (INH): 68.8%
HEp-2
  Activity: inactive
WiDr
  Activity: inactive
HepG2
  Activity: inactive

## CO[C@H]1C=C2[C@@H](CC[C@H](O)C2(C)C)[C@]2(C=O)CC[C@]3(C)[C@@H]([C@H](C)C/C=C/C(C)(C)OC)CC[C@@]3(C)[C@H]12
[1]
  viability at 24 h, 15 ug/ml: 90.5%
MCF7
  Activity: inactive
RAW264.7 [2]
  IC50: 35.6 µM
RAW264.7 [3]
  inhibition (INH): 35%
HEp-2
  Activity: inactive
WiDr
  Activity: inactive
HepG2
  Activity: inactive

## COC(=O)CC(=O)O[C@H]1CC[C@@H]2C(=C[C@H](O)[C@@H]3[C@@]2(C=O)CC[C@]2(C)[C@@H]([C@H](C)C/C=C/C(C)(C)OC)CC[C@@]32C)C1(C)C
[4]
  Activity: inactive
[1]
  viability at 24 h, 15 ug/ml: 69%
MCF7
  Activity: inactive
RAW264.7 [2]
  IC50: 15.6 µM
RAW264.7 [3]
  inhibition (INH): 64.3%
HEp-2
  Activity: inactive
WiDr
  Activity: inactive
HepG2
  Activity: inactive

## CCOC(C)(C)/C=C/C[C@@H](C)[C@H]1CC[C@@]2(C)[C@@H]3[C@@H](O)C=C4[C@@H](CC[C@H](OC(=O)CC(=O)O)C4(C)C)[C@]3(C=O)CC[C@]12C
[1]
  viability at 24 h, 15 ug/ml: 89.7%
MCF7
  Activity: inactive
RAW264.7 [2]
  IC50: 24 µM
RAW264.7 [3]
  inhibition (INH): 50.4%
HEp-2
  Activity: inactive
WiDr
  Activity: inactive
HepG2
  Activity: inactive

## COC(=O)CC(=O)O[C@H]1CC[C@@H]2C(=C[C@H](O)[C@@H]3[C@@]2(C=O)CC[C@]2(C)[C@@H]([C@H](C)C/C=C/C(C)(C)O)CC[C@@]32C)C1(C)C
[4]
  Activity: inactive
[1]
  viability at 24 h, 15 ug/ml: 67.6%
MCF7
  Activity: inactive
RAW264.7 [2]
  IC50: 20.3 µM
RAW264.7 [3]
  inhibition (INH): 65.1%
HEp-2
  Activity: inactive
WiDr
  Activity: inactive
HepG2
  Activity: inactive

## CO[C@H]1C=C2[C@@H](CC[C@H](OC(=O)CC(=O)O)C2(C)C)[C@]2(C=O)CC[C@]3(C)[C@@H]([C@H](C)C/C=C/C(C)(C)O)CC[C@@]3(C)[C@H]12
[1]
  viability at 24 h, 15 ug/ml: 125%
MCF7
  Activity: inactive
RAW264.7 [2]
  IC50: 24.4 µM
RAW264.7 [3]
  inhibition (INH): 51.2%
HEp-2
  Activity: inactive
WiDr
  Activity: inactive
HepG2
  Activity: inactive
